Reference: PMC10641814 (Journal of Medicinal Chemistry, 2023)

Experiments:
hMAO-B = biological target: T1, hMAO-B (Homo sapiens, UniProt P27338); assay: MAO-B inhibition, fluorometric method, p-tyramine substrate; type: biochemical; conditions: two experiments in duplicate
T1 construct: purchased Sigma-Aldrich M7441
T1 sequence (P27338 1-520): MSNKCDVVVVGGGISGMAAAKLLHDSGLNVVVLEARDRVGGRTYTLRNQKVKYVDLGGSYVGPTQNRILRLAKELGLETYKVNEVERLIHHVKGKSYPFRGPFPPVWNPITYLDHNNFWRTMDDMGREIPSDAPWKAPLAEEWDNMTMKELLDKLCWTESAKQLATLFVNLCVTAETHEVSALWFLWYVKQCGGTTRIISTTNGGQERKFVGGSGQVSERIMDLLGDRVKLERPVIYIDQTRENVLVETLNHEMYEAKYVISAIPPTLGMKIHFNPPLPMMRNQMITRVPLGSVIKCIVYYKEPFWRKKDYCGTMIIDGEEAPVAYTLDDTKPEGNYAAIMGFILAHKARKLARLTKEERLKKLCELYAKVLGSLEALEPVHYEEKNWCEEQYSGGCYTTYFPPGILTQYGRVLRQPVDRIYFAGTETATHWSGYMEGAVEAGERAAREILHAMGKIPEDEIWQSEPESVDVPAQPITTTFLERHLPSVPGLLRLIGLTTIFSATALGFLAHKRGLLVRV

h5-HT6R = biological target: T2, h5-HT6R (Homo sapiens, UniProt P50406); assay: 5-HT6R radioligand binding ([3H]-LSD) in HEK293 cells stably expressing h5-HT6R; conditions: 2 nM [3H]-LSD, mean of three independent experiments, read-out: Ki ± SEM [nM] 5-HT6R
T2 construct: expressed in transfected cells
T2 sequence (P50406 whole entry): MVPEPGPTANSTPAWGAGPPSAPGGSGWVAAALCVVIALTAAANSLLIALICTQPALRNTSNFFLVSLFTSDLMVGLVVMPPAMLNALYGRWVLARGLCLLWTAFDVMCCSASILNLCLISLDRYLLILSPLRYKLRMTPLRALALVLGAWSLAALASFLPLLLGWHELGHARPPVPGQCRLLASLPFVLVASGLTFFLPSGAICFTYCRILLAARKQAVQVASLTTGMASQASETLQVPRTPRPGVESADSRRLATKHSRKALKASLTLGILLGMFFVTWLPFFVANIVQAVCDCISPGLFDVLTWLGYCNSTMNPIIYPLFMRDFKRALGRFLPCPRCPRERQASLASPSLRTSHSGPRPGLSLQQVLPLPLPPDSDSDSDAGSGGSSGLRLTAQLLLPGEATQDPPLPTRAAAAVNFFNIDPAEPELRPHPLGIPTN

| pIC50 ± SEM (MAO-B) (hMAO-B) | Ki (h5-HT6R) | Structure (SMILES) |
| --- | --- | --- |
| 6.57 ± 0.03 | 21 ± 3 nM | Cl.c1ccc(Cn2ccc3c(N[C@H]4CCNC4)nc4ccccc4c32)cc1 [Compound 3] |
| 6.16 ± 0.05 | 21 ± 2 nM | Cl.Fc1cccc(Cn2ccc3c(N[C@H]4CCNC4)nc4ccccc4c32)c1 [Compound 4] |
| 6.92 ± 0.04 | 7 ± 1 nM | Cl.Clc1cccc(Cn2ccc3c(N[C@H]4CCNC4)nc4ccccc4c32)c1 [Compound 5, (S)-1-(3-Chlorobenzyl)-N-(pyrrolidin-3-yl)-1H-pyrrolo[3,2-c]quinolin-4-amine Hydrochloride] |
| 6.83 ± 0.01 | 30 ± 4 nM | Cl.Clc1cccc(Cn2ccc3c(N[C@@H]4CCNC4)nc4ccccc4c32)c1 [Compound 6] |
| 6.89 ± 0.12 | 10 ± 1 nM | Brc1cccc(Cn2ccc3c(N[C@H]4CCNC4)nc4ccccc4c32)c1.Cl [Compound 7] |
| 6.86 ± 0.07 | 25 ± 3 nM | COc1cccc(Cn2ccc3c(N[C@H]4CCNC4)nc4ccccc4c32)c1.Cl [Compound 8] |
| 5.70 ± 0.04 | 214 ± 26 nM | Cl.Clc1cccc(Cn2ccc3c(NC[C@H]4CCCN4)nc4ccccc4c32)c1 [Compound 9] |
| 6.52 ± 0.04 | 226 ± 30 nM | Cl.Clc1cccc(Cn2ccc3c(NC[C@@H]4CCCN4)nc4ccccc4c32)c1 [Compound 10, (S)-1-(3-Chlorobenzyl)-N-(pyrrolidin-2-ylmethyl)-1H-pyrrolo[3,2-c]quinolin-4-amine Hydrochloride] |
| 8.02 ± 0.12 | 140 ± 18 nM | Cl.Clc1cccc(Cn2ccc3c(NC[C@H]4CCNC4)nc4ccccc4c32)c1 [Compound 11] |
| 6.52 ± 0.04 | 122 ± 10 nM | Cl.Clc1cccc(Cn2ccc3c(NC[C@@H]4CCNC4)nc4ccccc4c32)c1 [Compound 12] |
| 7.43 ± 0.04 | 1340 ± 156 nM | CN(C)C1CCN(c2nc3ccccc3c3c2ccn3Cc2cccc(Cl)c2)C1.Cl (stereo not shown) [Compound 13] |
| 8.00 ± 0.00 | 1520 ± 220 nM | Cl.NC[C@@H]1CCN(c2nc3ccccc3c3c2ccn3Cc2cccc(Cl)c2)C1 [Compound 14] |
| 8.22 ± 0.14 | 723 ± 87 nM | CNC1CN(c2nc3ccccc3c3c2ccn3Cc2cccc(Cl)c2)C1.Cl [Compound 15] |
| 7.69 ± 0.12 | 138 ± 15 nM | Cl.Clc1cccc(Cn2ccc3c(N4CCCNCC4)nc4ccccc4c32)c1 [Compound 17] |
| 6.73 ± 0.02 | 372 ± 48 nM | Cl.Clc1cccc(Cn2ccc3c(N4C[C@H]5C[C@@H]4CN5)nc4ccccc4c32)c1 [Compound 18] |
| 5.60 ± 0.02 | 1270 ± 173 nM | CN(C)C1CCN(c2nc3ccccc3c3c2ccn3Cc2cccc(Cl)c2)CC1.Cl [Compound 19] |
| 7.01 ± 0.11 | 677 ± 82 nM | Cl.Clc1cccc(Cn2ccc3c(N4CC5(CCNC5)C4)nc4ccccc4c32)c1 [Compound 20, 1-(3-Chlorobenzyl)-4-(2,6-diazaspiro[3.4]octan-2-yl)-1H-pyrrolo[3,2-c]quinoline Hydrochloride] |
| 6.97 ± 0.05 | 920 ± 127 nM | Cl.Clc1cccc(Cn2ccc3c(N4CC5(CNC5)C4)nc4ccccc4c32)c1 [Compound 21] |
| 6.13 ± 0.06 | 541 ± 80 nM | Cl.Clc1cccc(Cn2ccc3c(C4CCNCC4)nc4ccccc4c32)c1 [Compound 23, 1-(3-Chlorobenzyl)-4-(piperidin-4-yl)-1H-pyrrolo[3,2-c]quinoline Hydrochloride] |
| 5.21 ± 0.02 | 119 ± 14 nM | Cl.Clc1cccc(Cn2ccc3c(CN4CCNCC4)nc4ccccc4c32)c1 [Compound 24] |
| 5.36 ± 0.03 | 152 ± 18 nM | Cl.Clc1cccc(CNc2cc(N3CCNCC3)nc3ccccc23)c1 [Compound 25] |
| 5.18 ± 0.04 | 5450 ± 793 nM | Cl.Clc1cccc(CNc2ccnc(N3CCNCC3)c2)c1 [Compound 26] |

| Structure (SMILES) | pIC50 ± SEM (MAO-B) (hMAO-B) | Ki (h5-HT6R) |
| --- | --- | --- |
| Cl.Clc1cccc(Cn2ccc3c(C4=CCNCC4)nc4ccccc4c32)c1 [Compound 22] | 6.67 ± 0.04 | 34 ± 4 nM |
